Values of other authors as cited in patent publication US20090304885A1, “Coffee and Tea Baking Compounds and Method of Producing The Same” (priority 2008, published 2009).

What was measured:
[1] = animal models
[2] = test system: Serratia marcescens
[3] = test system: Enterobacter cloacae
[4] = test system: methylazoxymethanol-induced large intestinal tumors; settings: hamster

For `O=C(O)/C=C/c1ccc(O)c(O)c1` [caffeic acid], which cancer preventive activities [1] is on record?
Its cancer preventive activities is “exert cancer preventive activities”.

Which antibacterial effect [2] does the source give for `Cn1c(=O)c2c(ncn2C)n(C)c1=O` [caffeine] here?
Its antibacterial effect is “particularly strong effect”.

What about the antibacterial effect [3] of the same compound?
The antibacterial effect was “particularly strong effect”.

Which results are given for `O=C(/C=C/c1ccc(O)c(O)c1)O[C@@H]1C[C@](O)(C(=O)O)C[C@@H](O)[C@H]1O` [chlorogenic acid]?
antibacterial effect [2]: particularly strong effect; antibacterial effect [3]: particularly strong effect; inhibition of tumors [4]: inhibit

For `O=C(O)/C=C/c1ccc(O)cc1` [para-coumaric acid], which cancer preventive activities [1] is on record?
The cancer preventive activities was “exert cancer preventive activities”.

With `O=C(O)c1ccc(O)c(O)c1` [protocatechuic acid] as the compound, how does the antibacterial effect [2] read?
Its antibacterial effect is “particularly strong effect”.

And the antibacterial effect [3]?
Its antibacterial effect is “particularly strong effect”.
